Data as given in ChEMBL document CHEMBL1201862, “PubChem BioAssay data set” (2004).
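The compound was tested at five concentrations on cells cultured in 96-well plates, with a 48-hour exposure period. GI50 is the concentration that inhibits growth by half.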 Active and inactive are the calls of the source. Cut-off read from the data, not from the text of the source: active = GI50 up to about 1.1 µM and inactive = higher.

Experiments:
Assay in all cases: DTP human tumour cell line panel, 48 h
[1] = system: UACC-257
[2] = system: SW-620
[3] = system: KM12
[4] = system: SF-539
[5] = system: CCRF-CEM
[6] = system: OVCAR-3
[7] = system: SN12C
[8] = system: NCI-H23
[9] = system: OVCAR-8
[10] = system: DLD-1
[11] = system: NCI-H522
[12] = system: MOLT-4
[13] = system: HOP-62
[14] = system: SK-MEL-28
[15] = system: CAKI-1
[16] = system: TK-10
[17] = system: M14
[18] = system: SR
[19] = system: RPMI-8226
[20] = system: UO-31

With `CCOCC(=O)N(C)c1cccc2c3c(n(C)c12)CCCCC3` the GI50 [1] was 1 µM (active), the GI50 [2] was > 100 µM (inactive) and the GI50 [3] was > 100 µM (inactive). For the same molecule, the GI50 [4] was > 100 µM (inactive), the GI50 [5] was > 58.9 µM (inactive) and the GI50 [6] was > 100 µM (inactive). The GI50 [7] was > 100 µM (inactive), the GI50 [8] was > 100 µM (inactive) and the GI50 [9] was > 100 µM (inactive). The GI50 [10] was > 100 µM (inactive), the GI50 [11] was > 100 µM (inactive) and the GI50 [12] was > 61.5 µM (inactive). The GI50 [13] was > 100 µM (inactive), the GI50 [14] was > 100 µM (inactive) and the GI50 [15] was 0.798 µM (active).

`Cc1cc(OCC(O)CO)ccc1Cl` (stereo unspecified) was tested, and the GI50 [16] was > 100 µM (inactive), the GI50 [1] was > 100 µM (inactive) and the GI50 [2] was > 100 µM (inactive). For the same molecule, the GI50 [3] was > 100 µM (inactive), the GI50 [4] was > 100 µM (inactive) and the GI50 [5] was > 100 µM (inactive). The GI50 [6] was > 100 µM (inactive), the GI50 [17] was > 100 µM (inactive) and the GI50 [18] was 60.1 µM (inactive). For the same molecule, the GI50 [7] was > 100 µM (inactive), the GI50 [8] was > 100 µM (inactive) and the GI50 [19] was > 100 µM (inactive). For the same molecule, the GI50 [9] was > 100 µM (inactive), the GI50 [10] was > 100 µM (inactive) and the GI50 [11] was > 100 µM (inactive). For the same molecule, the GI50 [20] was > 100 µM (inactive), the GI50 [12] was > 100 µM (inactive) and the GI50 [13] was > 100 µM (inactive). The GI50 [14] was > 100 µM (inactive) and the GI50 [15] was > 100 µM (inactive).

`COc1ccc(-c2cc(O)c3cc(C)cnc3n2)cc1` was tested, and the GI50 [16] was 2.86 µM (inactive), the GI50 [1] was 5.64 µM (inactive) and the GI50 [2] was 3.24 µM (inactive). For the same molecule, the GI50 [3] was 3.56 µM (inactive), the GI50 [4] was 6.41 µM (inactive) and the GI50 [5] was 3.21 µM (inactive). The GI50 [17] was 3.94 µM (inactive), the GI50 [7] was 5.13 µM (inactive) and the GI50 [8] was 6.19 µM (inactive). The GI50 [19] was 3.73 µM (inactive), the GI50 [9] was 4.57 µM (inactive) and the GI50 [11] was 4.01 µM (inactive). For the same molecule, the GI50 [20] was 7.85 µM (inactive), the GI50 [12] was 4.43 µM (inactive) and the GI50 [13] was 6.56 µM (inactive). The GI50 [14] was 28.6 µM (inactive) and the GI50 [15] was 6.11 µM (inactive).

For `N#CCCN(CCC#N)c1ccc(/C=C2\N=C(c3cc([N+](=O)[O-])ccc3Cl)N(NC(=O)CC(=O)Nc3ccccc3Cl)C2=O)cc1`, the GI50 [16] was > 100 µM (inactive), the GI50 [2] was > 100 µM (inactive) and the GI50 [3] was > 100 µM (inactive). The GI50 [4] was > 100 µM (inactive), the GI50 [5] was > 100 µM (inactive) and the GI50 [6] was > 100 µM (inactive). For the same molecule, the GI50 [17] was > 100 µM (inactive), the GI50 [18] was > 100 µM (inactive) and the GI50 [7] was > 100 µM (inactive). For the same molecule, the GI50 [8] was > 100 µM (inactive), the GI50 [19] was > 100 µM (inactive) and the GI50 [9] was > 100 µM (inactive). The GI50 [10] was > 100 µM (inactive), the GI50 [11] was > 100 µM (inactive) and the GI50 [20] was > 100 µM (inactive). The GI50 [12] was > 100 µM (inactive), the GI50 [13] was > 100 µM (inactive) and the GI50 [14] was > 100 µM (inactive). The GI50 [15] was > 100 µM (inactive).

With `CC/C(CC(=O)CCC(=O)Nc1ccc(C)c(C)c1)=N\NC(=O)c1cc2ccccc2cc1O` the GI50 [1] was 45.2 µM (inactive), the GI50 [2] was 30.2 µM (inactive) and the GI50 [3] was 38.4 µM (inactive). The GI50 [5] was 5.2 µM (inactive), the GI50 [6] was 18.6 µM (inactive) and the GI50 [17] was 17.1 µM (inactive). For the same molecule, the GI50 [18] was 18 µM (inactive), the GI50 [7] was 28.3 µM (inactive) and the GI50 [8] was 23.6 µM (inactive). For the same molecule, the GI50 [9] was 21.4 µM (inactive), the GI50 [10] was 13.4 µM (inactive) and the GI50 [20] was 26 µM (inactive). For the same molecule, the GI50 [12] was 11.4 µM (inactive), the GI50 [13] was 26 µM (inactive) and the GI50 [14] was 20.7 µM (inactive). The GI50 [15] was 20.8 µM (inactive).

`COC(=N)C(C)C` was tested, and the GI50 [16] was > 100 µM (inactive), the GI50 [1] was > 100 µM (inactive) and the GI50 [2] was > 100 µM (inactive). The GI50 [3] was > 100 µM (inactive), the GI50 [4] was > 100 µM (inactive) and the GI50 [5] was > 100 µM (inactive). The GI50 [6] was > 100 µM (inactive), the GI50 [17] was > 100 µM (inactive) and the GI50 [18] was > 100 µM (inactive). The GI50 [7] was > 100 µM (inactive), the GI50 [8] was > 100 µM (inactive) and the GI50 [19] was > 100 µM (inactive). The GI50 [10] was > 100 µM (inactive), the GI50 [11] was > 100 µM (inactive) and the GI50 [20] was > 100 µM (inactive). The GI50 [12] was > 100 µM (inactive), the GI50 [13] was > 100 µM (inactive) and the GI50 [14] was > 100 µM (inactive). For the same molecule, the GI50 [15] was > 100 µM (inactive).

`C=CCN1C(=O)/C(=C/c2ccccc2)N=C1SC1OC(COC(=O)c2ccccc2)C(OC(=O)c2ccccc2)C1OC(=O)c1ccccc1` (stereo unspecified) was tested, and the GI50 [16] was > 100 µM (inactive), the GI50 [1] was 25.7 µM (inactive) and the GI50 [2] was 79.8 µM (inactive). For the same molecule, the GI50 [3] was > 100 µM (inactive), the GI50 [4] was > 100 µM (inactive) and the GI50 [5] was 34.9 µM (inactive). The GI50 [6] was > 100 µM (inactive), the GI50 [18] was 64.3 µM (inactive) and the GI50 [8] was > 100 µM (inactive). For the same molecule, the GI50 [19] was 16.4 µM (inactive), the GI50 [9] was > 100 µM (inactive) and the GI50 [11] was 10.4 µM (inactive). For the same molecule, the GI50 [12] was > 100 µM (inactive), the GI50 [13] was > 100 µM (inactive) and the GI50 [14] was > 100 µM (inactive). The GI50 [15] was 97.9 µM (inactive).

With `COc1ccc(NC(=O)/C(=C/c2ccc(N(CCC#N)CCC#N)cc2)NC(=O)c2cc([N+](=O)[O-])ccc2Cl)cc1` the GI50 [16] was 66.1 µM (inactive), the GI50 [2] was 98.6 µM (inactive) and the GI50 [3] was 68.2 µM (inactive). For the same molecule, the GI50 [4] was 18.9 µM (inactive), the GI50 [5] was 71.6 µM (inactive) and the GI50 [6] was 94.4 µM (inactive). For the same molecule, the GI50 [17] was > 100 µM (inactive), the GI50 [18] was 74.1 µM (inactive) and the GI50 [7] was > 100 µM (inactive). The GI50 [8] was > 100 µM (inactive), the GI50 [19] was > 100 µM (inactive) and the GI50 [9] was 38.9 µM (inactive). For the same molecule, the GI50 [10] was 15.3 µM (inactive), the GI50 [11] was 4.27 µM (inactive) and the GI50 [20] was 9.91 µM (inactive). For the same molecule, the GI50 [12] was 83.8 µM (inactive), the GI50 [13] was 33.2 µM (inactive) and the GI50 [14] was 53.5 µM (inactive). For the same molecule, the GI50 [15] was 26.2 µM (inactive).
